Test results as given in patent US9481654B2, “Compositions and methods for inhibition of the JAK pathway” (Rigel Pharmaceuticals, Inc., priority 2006, dated 2016).

Columns and labels:
Format in all cases: cell-based
[1] = tested on: IL-4 stimulated CD23 upregulation in human Ramos B cells (JAK-1/JAK-3, Stat-6); test: Assay for Ramos B-Cell Line Stimulated with IL-4 (CD23 upregulation, FACS); conditions: Table III Example 3
Method in brief: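 Log-phase Ramos B cells (5×10^4 per point, RPMI with 5% serum) pre-incubated with compound or DMSO 1 h at 37° C, then stimulated with IL-4 at 50 units/mL final for 20-24 h. CD23 upregulation measured by staining and flow cytometry.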

[2] = tested on: primary human T-cells (IL-2 induced proliferation, JAK-1/JAK-3, Stat-5); test: Primary Human T-Cell Proliferation Assay Stimulated with IL-2 (CellTiter-Glo); conditions: Table III Example 4
Method in brief: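 Pre-activated peripheral-blood T-cells (TCR/CD28 stimulated, IL-2-maintained) were IL-2-depleted, then plated in Yssel's medium with 80 U/mL IL-2 in the cell suspension and compound in duplicate. Proliferation ran 72 h at 37 °C; viable cells quantified by CellTiter-Glo ATP luminescence, with IL-2-omitted wells as unstimulated control.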

[3] = tested on: IFNγ induced ICAM-1 (CD54) up-regulation in U937 human monocytic cells (JAK/Stat pathway); test: U937 IFNγ ICAM1 FACS Assay; conditions: Table III Example 6, 10 ng/mL IFNγ, 18-24 hours
Method in brief: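 U937 cells (100,000 per well) were pre-incubated 30 min at 37 °C with serially 3-fold diluted compound, then stimulated with IFNγ for 18–24 h. Surface ICAM-1 was measured by flow cytometry as the geometric mean of ICAM-APC on gated live cells. EC50 values were calculated from dose curves, with % live cells also recorded.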

IC50 ([1]; Homo sapiens, Ramos) | IC50 ([3]; Homo sapiens, U-937) | SMILES | IC50 [1] | IC50 [2] | IC50 [3] | IC50 ([2]; Homo sapiens, T-cell)
– | – | CCS(=O)(=O)NCc1cccc(Nc2nc(Nc3cccc(S(N)(=O)=O)c3)ncc2F)c1 [Compound I-12, N2-(3-aminosulfonyl)phenyl-N4-(3-ethylsulfonylaminomethyl)phenyl-5-fluoro-2,4-pyrimidinediamine] | 170 nM | 158 nM | 1580 nM | –
– | – | Cc1ccc(Nc2ncc(F)c(Nc3ccc(CNS(=O)(=O)C4CCCCC4)cc3)n2)cc1S(N)(=O)=O [Compound I-73, N2-(3-aminosulfonyl-4-methyl)phenyl-N4-(4-cyclohexylsulfonylaminomethyl)phenyl-5-fluoro-2,4-pyrimidinediamine] | 89.9 nM | 71 nM | 312 nM | –
– | – | Cc1ccc(Nc2ncc(C)c(Nc3ccc(CNS(=O)(=O)C4CC4)cc3)n2)cc1S(=O)(=O)NCc1ccccc1 [Compound I-195, N2-(3-benzylaminosulfonyl-4-methyl)phenyl-N4-(4-cyclopropylsulfonylaminomethyl)phenyl-5-methyl-2,4-pyrimidinediamine] | 66.4 nM | 104 nM | 230 nM | –
– | – | Cc1cnc(Nc2cccc(S(N)(=O)=O)c2)nc1Nc1ccc(CCNS(=O)(=O)C2CC2)cc1 [Compound I-54, N2-(3-aminosulfonyl)phenyl-N4-[4-(2-cyclopropylsulfonylamino)ethyl]phenyl-5-methyl-2,4-pyrimidinediamine] | 94.3 nM | 47 nM | 389 nM | –
– | – | Cc1cnc(Nc2cccc(S(N)(=O)=O)c2)nc1Nc1ccc(CN(C)S(=O)(=O)C2CC2)cc1 [Compound I-121, N2-(3-aminosulfonyl)phenyl-N4-[4-(N-cyclopropylsulfonyl-N-methyl)aminomethyl]phenyl-5-methyl-2,4-pyrimidinediamine] | 73.6 nM | 46.5 nM | 231 nM | –
– | – | Cc1ccc(Nc2ncc(F)c(Nc3ccc(CNS(=O)(=O)C(C)C)cc3)n2)cc1S(N)(=O)=O [Compound I-67, N2-(3-aminosulfonyl-4-methyl)phenyl-5-fluoro-N4-(4-isopropylsulfonylaminomethyl)phenyl-2,4-pyrimidinediamine] | 82.4 nM | 84.5 nM | 321 nM | –
– | – | Cc1ccc(Nc2ncc(C)c(Nc3cccc(CNS(=O)(=O)C4CC4)c3)n2)cc1S(N)(=O)=O [Compound I-52, N2-(3-aminosulfonyl-4-methyl)phenyl-N4-(3-cyclopropylsulfonylaminomethyl)phenyl-5-methyl-2,4-pyrimidinediamine] | 68.5 nM | 66.2 nM | 203 nM | –
130 nM | 710 nM | C#CCNS(=O)(=O)Cc1ccc(Nc2nc(Nc3ccc(C)c(S(N)(=O)=O)c3)ncc2F)cc1 [Compound I-5, N2-(3-Aminosulfonyl-4-methylphenyl)-5-fluoro-N4-[4-(prop-2-ynylaminosulfonylmethyl)phenyl]-2,4-pyrimidinediamine] | – | – | – | 120 nM
– | – | Cc1cnc(Nc2ccc(S(N)(=O)=O)cc2)nc1Nc1ccc(CNS(=O)(=O)C(C)C)cc1 [Compound I-123, N2-(4-aminosulfonyl)phenyl-N4-(4-isopropylsulfonylaminomethyl)phenyl-5-methyl-2,4-pyrimidinediamine] | 83.6 nM | 42.9 nM | 164 nM | –
– | – | Cc1ccc(Nc2ncc(C)c(Nc3ccc(CNS(=O)(=O)C4CC4)cc3)n2)cc1S(=O)(=O)Nc1ccccc1 [Compound I-202, N4-(4-cyclopropylsulfonylaminomethyl)phenyl-5-methyl-N2-(4-methyl-3-phenylaminosulfonyl)phenyl-2,4-pyrimidinediamine] | 86.5 nM | 184 nM | 482 nM | –
– | – | CCC(=O)N(Cc1cccc(Nc2nc(Nc3cccc(S(N)(=O)=O)c3)ncc2C)c1)S(=O)(=O)C1CC1 [Compound I-116, N2-(3-aminosulfonyl)phenyl-N4-[3-(N-cyclopropylsulfonyl-N-propionyl)aminomethyl]phenyl-5-methyl-2,4-pyrimidinediamine] | 36.7 nM | 29.9 nM | 178 nM | –
– | – | C#CCNS(=O)(=O)c1cccc(Nc2ncc(C)c(Nc3ccc(CNS(=O)(=O)C4CC4)cc3)n2)c1 [Compound I-165, N4-(4-cyclopropylsulfonylaminomethyl)phenyl-5-methyl-N2-(3-propargylaminosulfonyl)phenyl-2,4-pyrimidinediamine] | 34.8 nM | 19.9 nM | 150 nM | –
– | – | Cc1cnc(Nc2cc(S(N)(=O)=O)cc(S(N)(=O)=O)c2)nc1Nc1ccc(CNS(=O)(=O)C2CC2)cc1 [Compound I-84, N4-(4-cyclopropylsulfonylaminomethyl)phenyl-N2-(3,5-diaminosulfonyl)phenyl-5-methyl-2,4-pyrimidinediamine] | 355 nM | 237 nM | 928 nM | –
– | – | COCCCNS(=O)(=O)c1cc(Nc2ncc(C)c(Nc3ccc(CNS(=O)(=O)C4CC4)cc3)n2)ccc1C [Compound I-191, N4-(4-cyclopropylsulfonylaminomethyl)phenyl-N2-[3-(3-methoxypropyl)aminosulfonyl-4-methyl]phenyl-5-methyl-2,4-pyrimidinediamine] | 51.2 nM | 79.9 nM | 247 nM | –
– | – | CCS(=O)(=O)NCc1ccc(Nc2nc(Nc3cccc(S(N)(=O)=O)c3)ncc2C)cc1 [Compound I-21, N2-(3-aminosulfonyl)phenyl-N4-(4-ethylsulfonylaminomethyl)phenyl-5-methyl-2,4-pyrimidinediamine] | 81.2 nM | 58.9 nM | 362 nM | –
– | – | NS(=O)(=O)c1cccc(Nc2ncc(F)c(Nc3ccc(CNS(=O)(=O)C4CCCCC4)cc3)n2)c1 [Compound I-72, N2-(3-aminosulfonyl)phenyl-N4-(4-cyclohexylsulfonylaminomethyl)phenyl-5-fluoro-2,4-pyrimidinediamine] | 56.9 nM | 25.1 nM | 204 nM | –
– | – | Cc1cnc(Nc2cccc(S(N)(=O)=O)c2)nc1Nc1ccc(CNS(=O)(=O)C(C)C)cc1 [Compound I-118, N2-(3-aminosulfonyl)phenyl-N4-(4-isopropylsulfonylaminomethyl)phenyl-5-methyl-2,4-pyrimidinediamine] | 39.8 nM | 15.8 nM | 218 nM | –
– | – | C#CCNS(=O)(=O)c1ccc(Nc2ncc(C)c(Nc3ccc(CNS(=O)(=O)C4CC4)cc3)n2)cc1 [Compound I-164, N4-(4-cyclopropylsulfonylaminomethyl)phenyl-5-methyl-N2-(4-propargylaminosulfonyl)phenyl-2,4-pyrimidinediamine] | 61.3 nM | 32.8 nM | 160 nM | –
– | – | CCS(=O)(=O)NCc1ccc(Nc2nc(Nc3ccc(C)c(S(N)(=O)=O)c3)ncc2F)cc1 [Compound I-10, N2-(3-aminosulfonyl-4-methyl)phenyl-N4-(4-ethylsulfonylaminomethyl)phenyl-5-fluoro-2,4-pyrimidinediamine] | 94 nM | 60.6 nM | 477 nM | –
– | – | Cc1ccc(Nc2ncc(C)c(Nc3ccc(CNS(=O)(=O)C4CC4)cc3)n2)cc1S(=O)(=O)NCC1CC1 [Compound I-192, N2-(3-cyclopropylmethylaminosulfonyl-4-methyl)phenyl-N4-(4-cyclopropylsulfonylaminomethyl)phenyl-5-methyl-2,4-pyrimidinediamine] | 54.7 nM | 43.4 nM | 260 nM | –
– | – | COCCNS(=O)(=O)c1cc(Nc2ncc(C)c(Nc3cccc(CNS(=O)(=O)C4CC4)c3)n2)ccc1C [Compound I-210, N4-(3-cyclopropylsulfonylaminomethyl)phenyl-N2-[3-(2-methoxyethyl)aminosulfonyl-4-methyl]phenyl-5-methyl-2,4-pyrimidinediamine] | 128 nM | 143 nM | 175 nM | –
– | – | CCNS(=O)(=O)c1ccc(Nc2ncc(C)c(Nc3ccc(CNS(=O)(=O)C4CC4)cc3)n2)cc1 [Compound I-175, N4-(4-cyclopropylsulfonylaminomethyl)phenyl-N2-(4-ethylaminosulfonyl)phenyl-5-methyl-2,4-pyrimidinediamine] | 46.1 nM | 102 nM | 72.3 nM | –
– | – | Cc1ccc(Nc2ncc(C)c(Nc3ccc(CNS(=O)(=O)C4CC4)c(Cl)c3)n2)cc1S(N)(=O)=O [Compound I-125, N2-(3-aminosulfonyl-4-methyl)phenyl-N4-(3-chloro-4-cyclopropylsulfonylaminomethyl)phenyl-5-methyl-2,4-pyrimidinediamine] | 94.9 nM | 138 nM | 389 nM | –
– | – | Cc1cnc(Nc2cccc(S(N)(=O)=O)c2)nc1Nc1ccc(CNS(=O)(=O)CC(F)(F)F)cc1 [Compound I-97, N2-(3-aminosulfonyl)phenyl-5-methyl-N4-(4-trifluoroethylsulfonylaminomethyl)phenyl-2,4-pyrimidinediamine] | 34.7 nM | 48.8 nM | 257 nM | –
– | – | COCCCNS(=O)(=O)c1ccc(Nc2ncc(C)c(Nc3ccc(CNS(=O)(=O)C4CC4)cc3)n2)cc1 [Compound I-181, N4-(4-cyclopropylsulfonylaminomethyl)phenyl-N2-[4-(3-methoxypropyl)aminosulfonyl]phenyl-5-methyl-2,4-pyrimidinediamine] | 73.1 nM | 121 nM | 243 nM | –
